# Measured values reported in ChEMBL document CHEMBL3638921, “Bicyclic aryl and heteroaryl sodium channel inhibitors” (2015).
# Tests used:
# [1] = molecular target: T1, Sodium channel protein type 9 subunit alpha (Homo sapiens, UniProt Q15858); assay: In Vitro Assay: 293 Cells stably transfected with either Nav 1.7 or Nav 1.5 were recorded in population patch-clamp mode with the IonWorks Quattro automated electrophysiology system in accordance with the manufacturer's specifications (Molecular Devices, LLC, Sunnyvale, Calif.). Sodium channel currents were measured in response to a train of depolarizations that induced successively greater inactivation.Cells were held at -110 mV for three seconds (Nav 1.7) or half a second (Nav 1.5) from a holding voltage of -15 mV, then put through a series of 26 pulses of 150 msec duration to -20 mV at a frequency of 5 Hz. Cells were then left unclamped for a period of 3 to 8 minutes while a single concentration of test compound was added. Cells were then reclamped and put through the same voltage protocol. Current at the end of the 26th pulse to -20 mV was subtracted from the peak current evoked by the 26th pulse to -20 mV to correct for leak current.
# [2] = molecular target: T1, Sodium channel protein type 9 subunit alpha; assay: In Vitro PX Assay: 293 cells stably transfected with human Nav1.7 were recorded in whole cell voltage clamp mode with the PatchXpress automated electrophysiology system (Molecular Devices, LLC, Sunnyvale, Calif.). Compound effects were measured on a partially inactivated state of the sodium channel. Cells were clamped to a holding potential yielding 20 to 50% inactivation. To elicit sodium current, channels were activated by pulsing to −10 mV for 20 msec. This voltage protocol was repeated at a rate of 0.1 Hz throughout the experiment. A single concentration of test compound was applied to cells for a duration of 3 minutes. Peak sodium current was measured at the end of the compound addition period to determine percent inhibition.; type: cell-based
# T1 sequence (Q15858 whole entry): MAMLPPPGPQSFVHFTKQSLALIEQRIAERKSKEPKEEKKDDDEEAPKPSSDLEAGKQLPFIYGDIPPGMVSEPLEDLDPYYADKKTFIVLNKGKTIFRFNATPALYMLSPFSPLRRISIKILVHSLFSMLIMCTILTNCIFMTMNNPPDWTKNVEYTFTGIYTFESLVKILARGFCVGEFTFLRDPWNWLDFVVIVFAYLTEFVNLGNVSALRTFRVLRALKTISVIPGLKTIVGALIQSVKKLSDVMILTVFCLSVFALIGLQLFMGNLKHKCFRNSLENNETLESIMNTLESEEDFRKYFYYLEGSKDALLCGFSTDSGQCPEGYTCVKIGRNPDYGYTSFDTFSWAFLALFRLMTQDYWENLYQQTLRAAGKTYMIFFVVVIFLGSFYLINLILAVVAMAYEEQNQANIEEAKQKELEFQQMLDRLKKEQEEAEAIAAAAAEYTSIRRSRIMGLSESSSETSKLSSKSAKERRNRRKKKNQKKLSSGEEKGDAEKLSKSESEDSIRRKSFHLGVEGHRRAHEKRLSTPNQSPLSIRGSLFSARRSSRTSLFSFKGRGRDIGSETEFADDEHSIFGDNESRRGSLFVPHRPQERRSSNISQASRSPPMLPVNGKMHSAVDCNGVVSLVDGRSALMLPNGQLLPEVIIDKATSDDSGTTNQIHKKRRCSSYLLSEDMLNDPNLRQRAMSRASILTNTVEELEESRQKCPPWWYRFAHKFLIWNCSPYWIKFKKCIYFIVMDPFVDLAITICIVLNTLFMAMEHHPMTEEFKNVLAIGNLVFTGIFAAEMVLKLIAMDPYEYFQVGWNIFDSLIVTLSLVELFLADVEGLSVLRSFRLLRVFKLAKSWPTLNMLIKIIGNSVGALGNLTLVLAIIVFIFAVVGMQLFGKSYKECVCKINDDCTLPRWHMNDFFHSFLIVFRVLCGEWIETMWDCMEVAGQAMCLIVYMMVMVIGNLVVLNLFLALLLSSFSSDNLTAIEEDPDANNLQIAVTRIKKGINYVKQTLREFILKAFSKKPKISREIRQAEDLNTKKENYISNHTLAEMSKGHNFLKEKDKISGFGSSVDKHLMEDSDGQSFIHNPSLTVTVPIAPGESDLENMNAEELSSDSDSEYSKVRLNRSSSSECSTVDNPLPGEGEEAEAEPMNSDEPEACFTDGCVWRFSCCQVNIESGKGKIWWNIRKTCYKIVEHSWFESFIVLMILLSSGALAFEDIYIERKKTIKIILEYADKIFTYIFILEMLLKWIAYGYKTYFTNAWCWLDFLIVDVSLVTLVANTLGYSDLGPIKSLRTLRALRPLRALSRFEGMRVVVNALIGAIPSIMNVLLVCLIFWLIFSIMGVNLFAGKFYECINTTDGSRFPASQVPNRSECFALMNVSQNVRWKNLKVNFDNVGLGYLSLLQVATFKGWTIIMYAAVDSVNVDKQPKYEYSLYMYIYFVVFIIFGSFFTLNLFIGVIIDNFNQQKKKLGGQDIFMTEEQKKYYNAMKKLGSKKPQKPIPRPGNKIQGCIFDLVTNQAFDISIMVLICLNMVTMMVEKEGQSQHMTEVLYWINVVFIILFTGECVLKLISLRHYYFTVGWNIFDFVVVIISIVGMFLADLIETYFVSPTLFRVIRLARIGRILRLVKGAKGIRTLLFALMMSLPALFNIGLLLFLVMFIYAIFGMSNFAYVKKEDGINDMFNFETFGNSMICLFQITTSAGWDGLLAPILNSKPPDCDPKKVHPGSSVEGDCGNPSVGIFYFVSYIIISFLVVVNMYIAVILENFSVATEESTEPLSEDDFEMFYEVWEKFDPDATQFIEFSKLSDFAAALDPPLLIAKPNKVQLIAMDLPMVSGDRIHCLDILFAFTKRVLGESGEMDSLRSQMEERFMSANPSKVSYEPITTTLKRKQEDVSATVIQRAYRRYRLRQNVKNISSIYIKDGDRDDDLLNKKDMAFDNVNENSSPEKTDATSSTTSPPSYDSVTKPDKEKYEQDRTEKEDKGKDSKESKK
SMILES,IC50 [1],IC50 [2]
Cc1noc(C)c1-c1nccc2cc(S(=O)(=O)Nc3ccncn3)ccc12,> 10000 nM,–
O=S(=O)(Nc1ncns1)c1ccc2c(-c3ccc(Cl)cc3F)cccc2c1,210 nM,–
Nc1cc(Cl)ccc1-c1cccc2cc(S(=O)(=O)Nc3ncns3)ccc12,110 nM,–
O=S(=O)(Nc1ncns1)c1ccc2c(-c3ccc(Cl)cc3Cl)nccc2c1,70 nM,–
O=S(=O)(Nc1ncns1)c1ccc2c(N3CCC3c3ccccc3)cccc2c1 (stereo not given),3900 nM,10.5 µM
O=S(=O)(Nc1ccncn1)c1ccc2c(-c3cc(C(F)(F)F)ccc3F)nccc2c1,570 nM,10.8 µM
CN1CCC(c2cc(C(F)(F)F)ccc2-c2cccc3cc(S(=O)(=O)Nc4ncc(F)s4)ccc23)CC1,150 nM,0.282 µM
COc1cc(Cl)ncc1-c1nccc2cc(S(=O)(=O)Nc3ccncn3)ccc12,460 nM,18.3 µM
COc1cc(C)ccc1-c1nccc2cc(S(=O)(=O)Nc3nccs3)ccc12,–,0.393 µM
O=S(=O)(Nc1nccs1)c1ccc2c(-c3ccc(F)cc3Oc3cccnn3)nccc2c1,–,13.5 µM
O=S(=O)(Nc1nccs1)c1ccc2c(-c3ccc(C(F)(F)F)cc3Cl)ncnc2c1,–,0.971 µM
O=S(=O)(Nc1ccncn1)c1ccc2c(-c3ccc(-c4cccc(F)c4)cc3)nccc2c1,–,4.5 µM
Cc1cnc(OCCOc2ccccc2)c(-c2nccc3cc(S(=O)(=O)Nc4nccs4)ccc23)c1,–,5.16 µM
Cc1cc(Cl)ccc1-c1cccc2cc(S(=O)(=O)Nc3ncns3)ccc12,190 nM,–
O=S(=O)(Nc1ncns1)c1ccc2c(-c3ccc(C(F)(F)F)cc3F)cccc2c1,210 nM,–
COc1cc(C#N)ccc1-c1nncc2cc(S(=O)(=O)Nc3nccs3)ccc12,260 nM,1.23 µM
O=S(=O)(Nc1ncns1)c1ccc2c(-c3ccc(C(F)(F)F)cc3)cccc2c1,430 nM,–
O=S(=O)(Nc1nccs1)c1ccc2c(N3CCN(c4ccc(Cl)c(Cl)c4)CC3)nccc2c1,–,10.9 µM
COc1cc(-c2cccnc2)ccc1-c1nccc2cc(S(=O)(=O)Nc3ccncn3)ccc12,–,5.37 µM
O=S(=O)(Nc1ncns1)c1ccc2c(-c3ccc(Cl)cc3)cccc2c1,190 nM,–
